Assay results published in patent US7396910B2, “Transient receptor potential channel TRPV3 and its use” (IRM LLC, priority 2001, dated 2008).
“Also recorded” adds a separate entry of the source.

Tests used:
Mouse TRPV3 = biological target: T1, Mouse TRPV3 (Mus musculus, UniProt Q8K424, A9V); assay: Whole-cell voltage clamp of TRPV3-expressing CHO cells (heat-evoked currents); format: cell-based
T1 construct: expressed in transfected cells
T1 sequence (Q8K424 1-791 A9V): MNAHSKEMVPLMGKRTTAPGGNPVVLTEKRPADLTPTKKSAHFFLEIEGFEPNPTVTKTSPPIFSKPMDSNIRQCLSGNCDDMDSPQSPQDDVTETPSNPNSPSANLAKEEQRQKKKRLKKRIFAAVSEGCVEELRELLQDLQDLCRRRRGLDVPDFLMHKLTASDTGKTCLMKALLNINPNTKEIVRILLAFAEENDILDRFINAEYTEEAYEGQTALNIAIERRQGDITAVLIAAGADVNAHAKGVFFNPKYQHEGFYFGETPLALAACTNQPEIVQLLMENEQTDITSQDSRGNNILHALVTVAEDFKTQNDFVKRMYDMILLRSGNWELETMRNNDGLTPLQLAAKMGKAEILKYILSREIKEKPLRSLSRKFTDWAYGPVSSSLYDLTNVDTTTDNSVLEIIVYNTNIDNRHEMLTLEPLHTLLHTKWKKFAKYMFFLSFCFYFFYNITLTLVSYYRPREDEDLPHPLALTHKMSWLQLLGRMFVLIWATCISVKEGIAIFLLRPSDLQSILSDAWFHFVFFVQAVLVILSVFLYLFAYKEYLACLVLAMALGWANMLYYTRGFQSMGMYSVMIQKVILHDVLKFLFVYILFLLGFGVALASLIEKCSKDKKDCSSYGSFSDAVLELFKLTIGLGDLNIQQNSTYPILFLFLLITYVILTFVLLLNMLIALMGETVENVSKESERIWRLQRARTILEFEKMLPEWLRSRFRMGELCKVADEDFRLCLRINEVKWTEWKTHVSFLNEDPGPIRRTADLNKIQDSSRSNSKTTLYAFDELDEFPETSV
Experimental: Given the high degree of homology of TRPV3 to TRPV family members, TRPV3 is tested to determine whether it responds to stimuli known to activate other closely-related family members. Accordingly, the effects of heat upon TRPV3 activity in mediating conductance are examined using whole-cell patch-clamp analysis of transfected CHO cell lines expressing TRPV3.
Mouse TRPV3 and rat TRPV1 cDNA are subcloned into pcDNA5 (Invitrogen) and transfected into CHO-K1/FRT cells using Fugene 6 (Roche). The transfected cells are selected by growth in MEM medium containing 200 μg/mL hygromycin (Gibco BRL). Populations are frozen at early passages and these stocks are used for further studies. Stable clones that express the mRNAs are identified by Northern blot analysis as well as Southern blotting to confirm integration site. Long-term cultures are subsequently maintained at 33° C.
TRPV3 expressing CHO cells are assayed electrophysiologically using whole cell voltage clamped techniques. Currents are recorded via pCLAMP8 suite of software via an Axopatch 200A and filtered at 5 kHz. Series-resistance compensation for all experiments is 80% using 2-5 MΩ resistance, fire-polished pipettes. Unless stated, the holding potential for most experiments is −60 mV, apart from the current-voltage relationship studies (2 second ramp from −100 to +80 mV). Cells are normally bathed in a medium containing (mM): NaCl, 140; KCl, 5; Glucose; 10, HEPES, 10; CaCl2, 2; MgCl2 1; titrated to pH 7.4 with NaOH, apart from the monovalent permeability studies, when NaCl is replaced by equimolar KCl or CsCl with the omission of KCl, 5 mM. For the divalent permeability studies, the solutions either contain 1 mM Ca^2+ or Mg^2+ and (mM) NaCl, 100; Glucose, 10; Hepes, 10; sucrose, 80 or 30 mM test ion, in the above solution minus sucrose. The experiments in calcium free media have no added CaCl2 with the addition of 100 μM EGTA. Pipette solution is always (mM) CsCl, 140; CaCl2, 1; EGTA, 10; HEPES, 10; MgATP, 2; titrated to pH7.4 with CsOH. For the permeability, ratios for the monovalent cations relative to Na (PX/PNa) are calculated as follows: PX/PNa=Eshift={RT/F}log(PX/PNa[X]O/[Na]O)

mouse TRPM8 [1] = biological target: T2, mouse TRPM8 (Mus musculus, UniProt Q8R4D5); assay: Fura-2 calcium imaging of TRPM8-expressing CHO cells; format: cell-based
T2 construct: expressed in transfected cells
Text: Given the similarity of TRPM8 protein to TRPV family members and its unique expression pattern, the effects of heat, capsaicin, cold and menthol in mediating calcium influx are examined using transfected CHO-K1/FRT cells expressing TRPM8 protein and a fluorescent calcium imaging method as described in detail below.
To generate mouse TRPM8-expressing CHO cell lines, mouse TRPM8 cDNA are subcloned in pcDNA5 (Invitrogen), transfected into CHO-K1/FRT cells using Fugene 6 (Roche). The transfected cells are selected by growth in MEM medium containing […] hygromycin (Gibco BRL). Populations are frozen at early passage numbers and these stocks are used for further studies. Stable clones that express the mRNAs are identified by Northern blot analysis as well as Southern blotting to confirm integration site (not shown).
Calcium imaging experiments are performed essentially as previously described (see Savidge et al., Neuroscience, 102:177-184 (2001)). Briefly, cells are plated on glass coverslips and loaded with Fura-2 acetoxymethyl ester ([…]) and incubated for 30-60 minutes at room temperature in […] of pluronic acid (Molecular Probes, Eugene, Oreg.) in a HEPES-buffered saline (2 mM Ca 2+). Coverslips are placed in a laminar flow perfusion chamber (Warner Instrument Corp.) and constantly perfused with HEPES-buffered saline (2 mM Ca^2+) via a local perfusion pipette through which buffer and chilled solutions are also applied. Chilled stimulations consist of a linear decrease (˜1-1.5° C. sec^−1) in perfusate temperature from 33° C. to 10° C. Perfusate temperature is controlled by a regulated Peltier device and is monitored in the cell chamber by a miniature thermocouple. Alternatively, cells are plated on 24-well tissue culture plates, loaded with Fura-2 and application of solutions is performed with a 3 cc syringe over a period of 10 seconds. Images of Fura-2 loaded cells with the excitation wavelength alternating between […] are captured with a cooled CCD camera. Following subtraction of background fluorescence, the ratio of fluorescence intensity at the two wavelengths is calculated. Ratio levels in groups of 20-40 individual cells are analyzed using MetaFluor (Universal Imaging Corporation). All graphs are averaged responses from groups of 20-30 individual cells from representative single experiments. […] Hanks balanced salt solution (HBSS), phosphate buffered saline (PBS) and all cell culture reagents are obtained from Gibco BRL. Ruthenium red, capsaicin and menthol are obtained from Sigma.

mouse TRPM8 [2] = biological target: T2, mouse TRPM8; assay: Whole-cell voltage clamp of TRPM8-expressing CHO cells; format: cell-based
Experimental: To investigate the membrane responses to cold and menthol, voltage clamp experiments are carried out on TRPM8 expressing cells which are prepared as described above.
Cells are plated onto poly-D-lysine coated cover-slips for recording purposes and recordings undertaken 18-24 hours later. Experiments are carried out at room temperature using whole-cell voltage clamp technique, with an Axopatch 2B amplifier, filtered at 5 kHz and pClamp suite of software (Axon Instruments). Series resistant compensation is 80% for all experiments, using 2-5 MΩ fire-polished pipettes. Recording solutions are as follows; pipette solution for all experiments is (mM) CsCl, 140; CaCl2, 1; EGTA, 10; HEPES, 10; MgATP, 2; titrated to pH 7.4 with CsOH. For menthol and cold activated currents the bath solution is (mM): NaCl, 140; KCl, 5; Glucose; 10, HEPES, 10; CaCl2, 2; MgCl2, 1; titrated to pH 7.4 with NaOH. Current-voltage relationships are used to evaluate reversal potentials with voltage ramps from −100 to +60 mV (2 second duration). For the permeability studies for the monovalent ions the NaCl in a simplified bath solution (mM): NaCl, 140; Glucose; 10, HEPES, 10; CaCl2, 2; MgCl2, 1, is substituted by either equimolar CsCl or KCl (titrated with CsOH or KOH). For calcium permeability estimates, the bath solutions contains (mM) NaCl, 100; Glucose, 10 mM; Hepes, 10 mM (titrated with NaOH) plus 1 or 30 mM CaCl2. Osmolarity of solutions are adjusted by addition of sucrose. Permeability ratios for the monovalent cations to Na (PX/PNa) are calculated as follows: PX/PNa=Eshift={RT/F}log(PX/PNa[X]O/[Na]O)
where B′=P′Ca/PNa and P′Ca=PCa/(1+e^EF/RT) and [Ca]O(1) and [Ca]O(2) refer to the two different calcium concentrations. Local perfusion of menthol is via a TC^2bip temperature controller. A Marlow temperature controller is used for the cooling ramps.

[3] = tested on: Non-transfected CHO cells; assay: Fura-2 calcium imaging of non-transfected CHO cells (control cells); format: cell-based, Chinese Hamster; conditions: tested up to 1 mM
[4] = tested on: Non-transfected CHO cells; assay: Whole-cell voltage clamp of non-transfected CHO cells (control cells); format: cell-based, Chinese Hamster; conditions: temperatures >23° C.
Experimental: To investigate the membrane responses to cold and menthol, voltage clamp experiments are carried out on TRPM8 expressing cells which are prepared as described above. Cells are plated onto poly-D-lysine coated cover-slips for recording purposes and recordings undertaken 18-24 hours later. […] Series resistant compensation is 80% for all experiments, using 2-5 MΩ fire-polished pipettes. Recording solutions are as follows; pipette solution for all experiments is (mM) CsCl, 140; […] EGTA, 10; HEPES, 10; […] For menthol and cold activated currents the bath solution is (mM): NaCl, 140; KCl, 5; Glucose; 10, HEPES, 10; […] Current-voltage relationships are used to evaluate reversal potentials with voltage ramps from -100 to +60 mV (2 second duration). For the permeability studies for the monovalent ions the NaCl in a simplified bath solution (mM): NaCl, 140; Glucose; 10, HEPES, 10; […] MgCl2, 1, is substituted by either equimolar CsCl or KCl (titrated with CsOH or KOH). For calcium permeability estimates, the bath solutions contains (mM) NaCl, 100; Glucose, 10 mM; Hepes, 10 mM (titrated with NaOH) plus 1 or 30 mM CaCl2. Osmolarity of solutions are adjusted by addition of sucrose. Permeability ratios for the monovalent cations to Na (PX/PNa) are calculated as follows: […]={[…])

T2 sequence (Q8R4D5 whole entry): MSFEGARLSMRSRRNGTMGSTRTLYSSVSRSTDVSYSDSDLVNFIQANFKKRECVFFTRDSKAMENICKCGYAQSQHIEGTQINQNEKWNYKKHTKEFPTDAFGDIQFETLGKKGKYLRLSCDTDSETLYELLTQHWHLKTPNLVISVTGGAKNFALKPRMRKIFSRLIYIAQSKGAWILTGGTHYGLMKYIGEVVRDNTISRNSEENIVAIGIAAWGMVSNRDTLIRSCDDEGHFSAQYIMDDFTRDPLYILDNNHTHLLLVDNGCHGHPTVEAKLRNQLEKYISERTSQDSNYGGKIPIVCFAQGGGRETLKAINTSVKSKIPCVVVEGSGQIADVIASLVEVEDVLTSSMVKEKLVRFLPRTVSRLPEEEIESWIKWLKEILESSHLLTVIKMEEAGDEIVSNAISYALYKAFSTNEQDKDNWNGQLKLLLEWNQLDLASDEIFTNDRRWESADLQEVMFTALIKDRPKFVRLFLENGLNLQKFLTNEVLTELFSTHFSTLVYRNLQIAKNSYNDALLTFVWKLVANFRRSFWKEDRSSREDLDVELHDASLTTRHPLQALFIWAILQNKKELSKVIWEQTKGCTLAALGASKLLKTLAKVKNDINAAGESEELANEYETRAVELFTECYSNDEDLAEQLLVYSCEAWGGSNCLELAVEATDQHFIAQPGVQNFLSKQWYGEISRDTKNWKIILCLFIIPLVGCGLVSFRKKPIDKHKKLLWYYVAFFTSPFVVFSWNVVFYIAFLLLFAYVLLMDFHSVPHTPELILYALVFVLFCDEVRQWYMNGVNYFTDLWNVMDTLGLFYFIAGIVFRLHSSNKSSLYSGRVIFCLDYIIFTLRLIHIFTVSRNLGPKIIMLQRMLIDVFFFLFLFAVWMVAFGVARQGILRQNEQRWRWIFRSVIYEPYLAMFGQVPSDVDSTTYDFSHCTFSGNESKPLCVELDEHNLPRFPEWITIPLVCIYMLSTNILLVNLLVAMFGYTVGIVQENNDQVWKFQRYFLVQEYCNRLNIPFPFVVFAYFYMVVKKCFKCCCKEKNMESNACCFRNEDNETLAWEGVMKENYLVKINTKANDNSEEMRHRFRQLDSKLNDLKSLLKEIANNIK

In the case of `COc1cc(CNC(=O)CCCC/C=C/C(C)C)ccc1O` [Capsaicin, capsaicin], the “current response evoked in TRPV3-expressing cells” value (Mouse TRPV3; 1 μM, whole cell voltage clamp) is reported as “does not evoke a response” and the “intracellular calcium response evoked in TRPM8 expressing cells” value (mouse TRPM8 [1]; 10 μM) is reported as “does not evoke a response”.

In the case of `Oc1cc2c(cc1O)CN(C(=S)NCCc1ccc(Cl)cc1)CCC2` [capsazepine], the “amplitude of test heat-evoked current relative to the preceding response” value (Mouse TRPV3; 10 μM applied for 2 minutes prior to the test heat challenge, after 4-5 sensitizing heat steps, no-antagonist control 1.57±0.25) is reported as 2.31±0.36 times the amplitude of the preceding response.

With `CC1CCC(C(C)C)C(O)C1` (stereo not shown) [menthol] the “calcium response of TRPM8 expressing cells upon lowering the temperature to 30° C.” value (mouse TRPM8 [1]; 30° C., 10 μM (FIG. 7E)) was “intracellular calcium levels increases; also recorded: marked increase in intracellular Ca^2+”, the “calcium response of TRPM8 expressing cells at 33° C.” value (mouse TRPM8 [1]; 33° C., 10 μM (FIG. 7E)) was “does not induce a calcium response; also recorded: does not elicit an influx of Ca^2+” and the “intracellular calcium (Fura-2 fluorescence) response of TRPM8 cells” value (mouse TRPM8 [1]; cells incubated at 25° C., 10 and 100 μM) was “increases significantly; also recorded: responds to menthol”. The “desensitization of TRPM8-expressing cells on repeated applications” value (mouse TRPM8 [1]; repeated applications (FIG. 7E)) was “do not appear to desensitize”, the “inward currents evoked in TRPM8-expressing CHO cells (FIG. 10A)” value (mouse TRPM8 [2]; 1 mM, Vh=−60 mV, 25° C.) was “Inward currents evoked” and the “concentration-response relationship of evoked currents at 22° C. versus 35° C.” value (mouse TRPM8 [2]; +60 mV, 0.1, 0.5, 1 and 10 mM) was “shifted to the left at the lower temperature”. The “Erev of the menthol activated current” value (mouse TRPM8 [2]; CsCl pipette, NaCl-based bath solution, n=12) was −9.28±0.75 mV, the “currents evoked in TRPM8 expressing cells” value (mouse TRPM8 [2]; temperatures above the threshold for cold activation (>23° C.)) was “evokes rapidly activating currents” and the “calcium response of non-transfected CHO cells” value [3] was “completely insensitive; also recorded: no increase in [Ca^2+]i”. The “currents evoked in non-transfected CHO cells” value [4] was “not in non-transfected CHO cells”.

In the case of `N.N.N.N.N.N.N.N.N.N.N.N.N.N.[Cl-].[Cl-].[Cl-].[Cl-].[Cl-].[Cl-].[O-2].[O-2].[Ru+3].[Ru+3].[Ru+4]` [ruthenium red], the “relative amplitude of the heat response (test heat-evoked current relative to the preceding response)” value (Mouse TRPV3; 1 μM applied for 2 minutes prior to the test heat challenge, after 4-5 sensitizing heat steps, no-antagonist control 1.57±0.25) is reported as 0.34±0.03, the “effect on sensitization and heat response of TRPV3 (FIG. 4D)” value (Mouse TRPV3; 1 μM, repeated heat steps) is reported as “attenuates the sensitization and inhibits the heat response” and the “suppression of the temperature (cold) calcium response of TRPM8 expressing cells” value (mouse TRPM8 [1]; 5 μM) is reported as “does not suppress the temperature response”.
